In patent publication US20060188959A1, “Crystal structure of worm NitFhit reveals that a Nit tetramer binds tow Fhit dimers” (Thomas Jefferson University, priority 2000, published 2006):
Read-outs that look alike come from different tables or passages of the source.

Tests used:
Type in all cases: biochemical, C. elegans
[1] = molecular target: T1, Fhit active site of NitFhit (Caenorhabditis elegans, UniProt O76463); test: Nonlabeled compounds as competitive inhibitors of ApppBODIPY hydrolysis
T1 construct: generated an NdeI site at the initiator codon and an XhoI site 3′ of the stop codon; made in house; host or cells: E. coli strain ER2566
T1 sequence (O76463 1-440): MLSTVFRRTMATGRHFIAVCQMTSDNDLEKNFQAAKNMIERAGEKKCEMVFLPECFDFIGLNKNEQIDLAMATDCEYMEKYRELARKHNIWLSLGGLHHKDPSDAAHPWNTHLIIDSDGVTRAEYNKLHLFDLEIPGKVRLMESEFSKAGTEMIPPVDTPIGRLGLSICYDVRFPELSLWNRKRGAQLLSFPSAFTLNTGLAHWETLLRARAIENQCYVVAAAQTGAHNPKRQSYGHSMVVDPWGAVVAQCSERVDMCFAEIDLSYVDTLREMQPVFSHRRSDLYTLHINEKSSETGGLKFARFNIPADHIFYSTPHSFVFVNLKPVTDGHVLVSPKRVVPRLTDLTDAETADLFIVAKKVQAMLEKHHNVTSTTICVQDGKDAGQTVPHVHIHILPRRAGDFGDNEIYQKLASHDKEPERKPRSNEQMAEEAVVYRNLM

[2] = molecular target: T1, Fhit active site of NitFhit; test: ApppBODIPY substrate decay assay of the Fhit active site of NitFhit; details: ApppBODIPY as substrate; % of the activity of human Fhit
[3] = molecular target: T1, Fhit active site of NitFhit; test: GpppBODIPY initial rate assay of the Fhit active site of NitFhit
[4] = titration of nonlabeled compound into 1.5 μM ApppBODIPY assays, five competitor concentrations, read-out: Kl
[5] = initial rates, GpppBODIPY titrated 40 μM to 2.5 μM, 0.5 pmol enzyme

Row | Ki [1, 4] [µM] | Molecule | Ki [1] [µM] | also measured
1 | 4.2 ± 0.4 | Nc1ncnc2c1ncn2[C@@H]1O[C@H](COP(=O)(O)OP(=O)(O)OP(=O)(O)OC[C@H]2O[C@@H](n3cnc4c(N)ncnc43)[C@H](O)[C@@H]2O)[C@@H](O)[C@H]1O [ApppA] |  | 
2 | 2.7 ± 0.3 | Nc1ncnc2c1ncn2[C@@H]1O[C@H](COP(=O)(O)OP(=O)(O)OP(=O)(O)OP(=O)(O)OC[C@H]2O[C@@H](n3cnc4c(N)ncnc43)[C@H](O)[C@@H]2O)[C@@H](O)[C@H]1O [AppppA] |  | 
3 | 4.5 ± 0.7 | Nc1ncnc2c1ncn2[C@@H]1O[C@H](COP(=O)(O)OP(=O)(O)OP(=O)(O)OP(=O)(O)OP(=O)(O)OC[C@H]2O[C@@H](n3cnc4c(N)ncnc43)[C@H](O)[C@@H]2O)[C@@H](O)[C@H]1O [ApppppA] |  | 

More lines, now with the values behind:

Row | Molecule | Ki [1, 4] [µM] | Ki [1] [µM] | also measured
4 | Nc1ncnc2c1ncn2[C@@H]1O[C@H](COP(=O)(O)O)[C@@H](O)[C@H]1O [AMP] |  | 153 ± 13 | 
5 | Nc1ncnc2c1ncn2[C@@H]1O[C@H](COP(O)(=S)OP(=O)(O)OP(=O)(O)O)[C@@H](O)[C@H]1O (some centres unmarked) [ATP-αS] |  | 287 ± 73 | 
6 | Nc1nc(O)c2ncn([C@@H]3O[C@H](COP(=O)(S)OP(=O)(O)OP(=O)(O)O)[C@@H](O)[C@H]3O)c2n1 (some centres unmarked) [GTP-αS] |  | 481 ± 27 | 
7 | O=P(O)(O)OP(=O)(O)O [pyrophosphate] |  | 78 ± 12 | 
8 | Appp-S-(4-4-fluoro-5,7-dimethyl-4-bora-3a,4a-diaza-s-indacine-3-yl) [ApppBODIPY] |  |  | activity of worm NitFhit relative to human Fhit on the substrate (kcat/Km) [2]: 22%
9 | Gppp-S-(4-4-fluoro-5,7-dimethyl-4-bora-3a,4a-diaza-s-indacine-3-yl) [GpppBODIPY] |  |  | activity of worm NitFhit relative to human Fhit on the substrate (kcat/Km) ([3]; GpppBODIPY as substrate, % of the activity of human Fhit): 109%; Km [3, 5]: 3.7 µM; kcat [3, 5]: 2.4 s⁻¹
